Measured values taken from patent US20040191168A1, “Tumor cell killing by cell cycle checkpoint abrogation combined with Inhibition of the classical mitogen activated protein (map) kinase pathway” (priority 2000, published 2004).
Several values for one entry are separate records, joined by “and”; a condition that tells them apart may be missing. Equal values may be shown once.

Columns and labels:
U937 cells = test: Loss of mitochondrial membrane potential (reduced DiOC6 uptake, flow cytometry) in U937 cells; assay type: cell-based, human; conditions: 18 h, PD184352 10 μM, GFX 1 μM, safingol 2 μM, mean ± SD
Protocol: Experimental Format. All of the experiments were performed using logarithmically growing cells (3-5×10^5 cells/ml). Cell suspensions were placed in sterile 25 cm^2 T-flasks (Corning, Corning, N.Y.) and incubated with MEK or PKC inhibitors for 30 min at 37° C. At the end of this period, UCN-01 (or in some cases, caffeine) was added to the suspension, and the flasks were placed in 37° C./5% CO2 incubator at various intervals, generally 18 h. In some studies, the p38 MAP kinase inhibitor SB203580 was added concurrently with MEK inhibitors. After drug treatment, cells were harvested and subjected to further analysis as described below.
Analysis of Mitochondrial Membrane Potential (ΔΨm). Cells 2×10^5 were incubated with 40 nM DiOC6 (Molecular Probes Inc., Eugene, Oreg.) in PBS at 37° C. for 20 min and then analyzed by flow cytometry as described previously (Wang et al., 1999).

MCF7 cells = conditions: MCF7, 24 h; with 150 nM UCN-01; PD184352 10 μM, U0126 5 μM; FIG. 8B
Protocol: Terminal Uridyl-Nucleotide End Labeling (TUNEL) for apoptosis. […] Cells were isolated 24 h after irradiation by trypsinizationi followed by centrifugation onto glass slides (cytospin). Terminal Uridyl-Nucleotide End Labeling (TUNEL) was performed on these cells as described previously [Wang et al., 1999; Park et al., 1999]. Randomly selected fields of fixed cells (150 cells per field, n=5 per slide) were counted initially using propidium iodide counter stain, followed by examination and counting of TUNEL positive staining cells of the same field under FITC/fluorescence light.

colon tumor cells = conditions: mice (Sebolt-Leopold et al., 1999); cited from earlier work
DU145 cells = test: Colony forming (clonogenic) assay in DU145 cells; assay type: cell-based, human; conditions: 25 μM PD98059, 150 nM UCN-01, replated 48 h, ± SEM
Protocol: Colony forming (clonogenic) assay. Cells were plated 36 h prior to experimentation. Cells were pre-treated with MEK1/2 inhibitor as indicated, 2 h prior to exposure. Cells were irradiated (2 Gy). After a further 48 h, cells were isolated by tryptic digestion and single cell suspensions plated on Linbro® plates at densities of 500 cells/well and 1000 cells/well. Colony formation was defined as a colony of 50 cells or greater, 10 days after plating.

| SMILES | "Low" DiOC6 (% cells) (U937 cells) | apoptosis in combination with UCN-01 (MCF7 cells) | in vivo growth of colon tumor cells (colon tumor cells) | clonogenic survival (colonies, normalized to control unirradiated cells = 100%) (DU145 cells; DU145, 2 Gy) | clonogenic survival (colonies, normalized to control unirradiated cells = 100%) (DU145 cells; DU145, mock irradiated) |
| --- | --- | --- | --- | --- | --- |
| O=C(NOCC1CC1)c1ccc(F)c(F)c1Nc1ccc(I)cc1Cl [PD184352] | 12.1 ± 0.2% and 14.7 ± 1.0% | enhanced apoptosis | inhibit the in vivo growth of colon tumor cells in mice |  |  |
| CN[C@@H]1C[C@H]2O[C@@](C)([C@@H]1OC)n1c3ccccc3c3c4c(c5c6ccccc6n2c5c31)C(=O)N[C@H]4O [UCN-01, 7-hydroxystaurosporine] |  |  |  | 68 ± 2% | 82 ± 4% |
